Test results published in patent US11000033B2, “Ketone or oxime compound, and herbicide” (NISSAN CHEMICAL CORPORATION, priority 2014, dated 2021).

What was measured:
Format in all cases: in vivo
[1] = test system: Veronica persica; assay: Test Example 4: herbicidal effect by soil treatment (symbol R)
Method in brief: (§1)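 Seeds were sown in sterilized diluvial soil, covered with about 1.5 cm of soil, and the soil surface was sprayed with a water-diluted emulsion of the compound at a predetermined rate. Plants grew in a greenhouse at 25° C. to 30° C.; effects were scored visually 3 weeks after application.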

[2] = test system: wheat; assay: Test Example 4: effect on crop by soil treatment (symbol e)
Method in brief: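 Sterilized diluvial soil, spot sowing, ~1.5 cm soil cover; greenhouse 25–30° C.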

[3] = test system: Cyperus difformis; assay: Test Example 3: herbicidal effect by foliage application, Wagner pot (symbol E); details: application herbicide amount 320 g/ha
Method in brief: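 In a shallow-flooded alluvial soil system held at 25–30 °C, plants including rice grew for 14 days and were then sprayed over the foliage with emulsion diluted to a fixed herbicide amount. Visual rating followed at 3 weeks.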

[4] = test system: Echinochloa oryzacola Vasing.; assay: Test Example 1: herbicidal activity, application before weed generation in submerged conditions (symbol A); details: application herbicide amount 320 g/ha
Method in brief: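 Greenhouse growth at 25–30 °C lasted 3 weeks after treatment, when each weed was graded 0–5 by herbicidal ratio. Treatment was a diluted emulsion applied to the water surface of 4 cm-submerged alluvial soil on the sowing day.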

[5] = test system: Galium spurium; assay: Test Example 5: herbicidal effect by foliage application, plastic box (symbol Q); details: 320 g/ha, 3 weeks after application
Method in brief: (§2)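 Emulsion formulation, diluted with water to the intended rate, was applied uniformly to leaves by small sprayer. Recipients were 14-day greenhouse-grown seedlings (25° C. to 30° C.). Assessment followed at 3 weeks.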

[6] = test system: corn; assay: Test Example 5: effect on crop by foliage application, plastic box (symbol c); details: 320 g/ha, 3 weeks after application
Method in brief: (§3)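 Foliage-application test plants come from spot sowing in sterilized diluvial soil under a soil layer of about 1.5 cm, grown at 25° C. to 30° C. in a greenhouse.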

[7] = test system: soybean; assay: Test Example 5: effect on crop by foliage application, plastic box (symbol d); details: 320 g/ha, 3 weeks after application
Method in brief: as §3

[8] = test system: Amaranthus retroflexus; assay: Test Example 4: herbicidal effect by soil treatment (symbol N)
Method in brief: as §1

[9] = test system: Chenopodium album; assay: Test Example 5: herbicidal effect by foliage application, plastic box (symbol O); details: 320 g/ha, 3 weeks after application
Method in brief: as §2

[10] = test system: Veronica persica; assay: Test Example 5: herbicidal effect by foliage application, plastic box (symbol R); details: 320 g/ha, 3 weeks after application
Method in brief: as §2

[11] = test system: Abutilon theophrasti; assay: Test Example 4: herbicidal effect by soil treatment (symbol M)
Method in brief: as §1

[12] = test system: Apera spica-venti; assay: Test Example 4: herbicidal effect by soil treatment (symbol L)
Method in brief: as §1

[13] = application herbicide amount 320 g/ha

Structure (SMILES)	R: Veronica persica, herbicidal effect grade [1, 13]	e: wheat, effect on crop grade [2, 13]	herbicidal effect on E, grade 0-5 [3]	Herbicidal effect grade, A: Echinochloa oryzacola Vasing. [4]	Q: Galium spurium, herbicidal effect grade [5]	c: corn, effect on crop grade [6]	d: soybean, effect on crop grade [7]	N: Amaranthus retroflexus, herbicidal effect grade [8, 13]	O: Chenopodium album, herbicidal effect grade [9]	R: Veronica persica, herbicidal effect grade [10]	M: Abutilon theophrasti, herbicidal effect grade [11, 13]	L: Apera spica-venti, herbicidal effect grade [12, 13]	other results
CON=C(C)CC1CC(O)=C(c2c(C)cc(-c3ccc(OC)cc3)cc2C)C1=O (mixture of isomers) [6-017]	0 (Herbicidal ratio of 5% or lower (almost no effect))	0 (Herbicidal ratio of 5% or lower (almost no effect))	4 (Herbicidal ratio of 70% or higher and lower than 90%)	5 (Herbicidal ratio of 90% or more (almost completely withered))	0 (Herbicidal ratio of 5% or lower (almost no effect))	5 (Herbicidal ratio of 90% or more (almost completely withered))	0 (Herbicidal ratio of 5% or lower (almost no effect))	1 (Herbicidal ratio of 5% or higher and lower than 20%)	4 (Herbicidal ratio of 70% or higher and lower than 90%)	3 (Herbicidal ratio of 40% or higher and lower than 70%)	0 (Herbicidal ratio of 5% or lower (almost no effect))	5 (Herbicidal ratio of 90% or more (almost completely withered))	
CON=C(C)CC1CC(O)=C(c2c(C)cc(C#CCO)cc2C)C1=O (mixture of isomers) [6-025]	0 (Herbicidal ratio of 5% or lower (almost no effect))	0 (Herbicidal ratio of 5% or lower (almost no effect))	4 (Herbicidal ratio of 70% or higher and lower than 90%)	2 (Herbicidal ratio of 20% or higher and lower than 40%)	0 (Herbicidal ratio of 5% or lower (almost no effect))	4 (Herbicidal ratio of 70% or higher and lower than 90%)	0 (Herbicidal ratio of 5% or lower (almost no effect))	0 (Herbicidal ratio of 5% or lower (almost no effect))	0 (Herbicidal ratio of 5% or lower (almost no effect))	0 (Herbicidal ratio of 5% or lower (almost no effect))	0 (Herbicidal ratio of 5% or lower (almost no effect))	4 (Herbicidal ratio of 70% or higher and lower than 90%)	
CON=C(C)CC1CC(O)=C(c2c(C)cc(-c3ccc(Cl)cc3)cc2C)C1=O (mixture of isomers) [6-029]	4 (Herbicidal ratio of 70% or higher and lower than 90%)	4 (Herbicidal ratio of 70% or higher and lower than 90%)	5 (Herbicidal ratio of 90% or more (almost completely withered))	5 (Herbicidal ratio of 90% or more (almost completely withered))	5 (Herbicidal ratio of 90% or more (almost completely withered))	5 (Herbicidal ratio of 90% or more (almost completely withered))	0 (Herbicidal ratio of 5% or lower (almost no effect))	0 (Herbicidal ratio of 5% or lower (almost no effect))	4 (Herbicidal ratio of 70% or higher and lower than 90%)	4 (Herbicidal ratio of 70% or higher and lower than 90%)	0 (Herbicidal ratio of 5% or lower (almost no effect))	5 (Herbicidal ratio of 90% or more (almost completely withered))	
CON=C(C)CC1CC(O)=C(c2c(C)cc(-c3cccc(Cl)c3)cc2C)C1=O (mixture of isomers) [6-034]	4 (Herbicidal ratio of 70% or higher and lower than 90%)	0 (Herbicidal ratio of 5% or lower (almost no effect))	4 (Herbicidal ratio of 70% or higher and lower than 90%)	5 (Herbicidal ratio of 90% or more (almost completely withered))	5 (Herbicidal ratio of 90% or more (almost completely withered))	5 (Herbicidal ratio of 90% or more (almost completely withered))	0 (Herbicidal ratio of 5% or lower (almost no effect))	2 (Herbicidal ratio of 20% or higher and lower than 40%)	3 (Herbicidal ratio of 40% or higher and lower than 70%)	3 (Herbicidal ratio of 40% or higher and lower than 70%)	1 (Herbicidal ratio of 5% or higher and lower than 20%)	5 (Herbicidal ratio of 90% or more (almost completely withered))	
CON=C(C)CC1CC(O)=C(c2c(C)cc(-c3ccc(Cl)nc3)cc2C)C1=O (mixture of isomers) [6-035]	3 (Herbicidal ratio of 40% or higher and lower than 70%)	0 (Herbicidal ratio of 5% or lower (almost no effect))	5 (Herbicidal ratio of 90% or more (almost completely withered))	5 (Herbicidal ratio of 90% or more (almost completely withered))	4 (Herbicidal ratio of 70% or higher and lower than 90%)	5 (Herbicidal ratio of 90% or more (almost completely withered))	2 (Herbicidal ratio of 20% or higher and lower than 40%)	0 (Herbicidal ratio of 5% or lower (almost no effect))	3 (Herbicidal ratio of 40% or higher and lower than 70%)	4 (Herbicidal ratio of 70% or higher and lower than 90%)	0 (Herbicidal ratio of 5% or lower (almost no effect))	5 (Herbicidal ratio of 90% or more (almost completely withered))	
CON=C(C)CC1CC(OC(=O)c2ccccc2)=C(c2c(C)cc(C)cc2C)C1=O (stereo not drawn) [1-010]			5 (Herbicidal ratio of 90% or more (almost completely withered))	5 (Herbicidal ratio of 90% or more (almost completely withered))	4 (Herbicidal ratio of 70% or higher and lower than 90%)	5 (Herbicidal ratio of 90% or more (almost completely withered))	4 (Herbicidal ratio of 70% or higher and lower than 90%)		4 (Herbicidal ratio of 70% or higher and lower than 90%)	4 (Herbicidal ratio of 70% or higher and lower than 90%)			R (Veronica persica) herbicidal effect grade [1, 13]: 4 (Herbicidal ratio of 70% or higher and lower than 90%); e (wheat) effect on crop grade [2, 13]: 4 (Herbicidal ratio of 70% or higher and lower than 90%); N (Amaranthus retroflexus) herbicidal effect grade [8, 13]: 5 (Herbicidal ratio of 90% or more (almost completely withered)); M (Abutilon theophrasti) herbicidal effect grade [11, 13]: 5 (Herbicidal ratio of 90% or more (almost completely withered)); L (Apera spica-venti) herbicidal effect grade [12, 13]: 5 (Herbicidal ratio of 90% or more (almost completely withered))
CON=C(C)CC1CC(OC(=O)c2ccc(C(F)(F)F)cc2)=C(c2c(C)cc(C)cc2C)C1=O (stereo not drawn) [1-149]			5 (Herbicidal ratio of 90% or more (almost completely withered))	5 (Herbicidal ratio of 90% or more (almost completely withered))									R: Veronica persica, herbicidal effect grade ([1]; 320 g/ha): 0 (Herbicidal ratio of 5% or lower (almost no effect)); e: wheat, effect grade on crop ([2]; 320 g/ha): 5 (Herbicidal ratio of 90% or more (almost completely withered)); Q: Galium spurium, herbicidal effect (criteria 0-5) [5]: 3 (Herbicidal ratio of 40% or higher and lower than 70%); c: corn, effect on crop (criteria 0-5) [6]: 4 (Herbicidal ratio of 70% or higher and lower than 90%); d: soybean, effect on crop (criteria 0-5) [7]: 2 (Herbicidal ratio of 20% or higher and lower than 40%); N: Amaranthus retroflexus, herbicidal effect grade ([8]; 320 g/ha): 4 (Herbicidal ratio of 70% or higher and lower than 90%); O: Chenopodium album, herbicidal effect (criteria 0-5) [9]: 2 (Herbicidal ratio of 20% or higher and lower than 40%); R: Veronica persica, herbicidal effect (criteria 0-5) [10]: 2 (Herbicidal ratio of 20% or higher and lower than 40%); M: Abutilon theophrasti, herbicidal effect grade ([11]; 320 g/ha): 5 (Herbicidal ratio of 90% or more (almost completely withered)); L: Apera spica-venti, herbicidal effect grade ([12]; 320 g/ha): 5 (Herbicidal ratio of 90% or more (almost completely withered))
